Measured values published in patent US20100093764A1, “AMINES AND SULFOXIDES OF THIENO[2,3-d]PYRIMIDINE AND THEIR USE AS ADENOSINE A2a RECEPTOR ANTAGONISTS” (priority 2008, published 2010).
Where a name gives a salt, the structure may show the parent alone.

Legend:
[1] = target: T1, human adenosine A1 receptor (Homo sapiens, UniProt P30542); experiment: Adenosine A1 Receptor Functional Assay (A1GAL2); format: cell-based; settings: CHO-K1 cells overexpressing human A1 receptor, cAMP inducible beta-galactosidase reporter, 4 nM r-PIA/1 uM Forskolin agonist challenge
T1 construct: expressed in transfected cells; host or cells: CHO-K1 cells with a cAMP inducible beta-galactosidase reporter gene
T1 sequence (P30542 1-326): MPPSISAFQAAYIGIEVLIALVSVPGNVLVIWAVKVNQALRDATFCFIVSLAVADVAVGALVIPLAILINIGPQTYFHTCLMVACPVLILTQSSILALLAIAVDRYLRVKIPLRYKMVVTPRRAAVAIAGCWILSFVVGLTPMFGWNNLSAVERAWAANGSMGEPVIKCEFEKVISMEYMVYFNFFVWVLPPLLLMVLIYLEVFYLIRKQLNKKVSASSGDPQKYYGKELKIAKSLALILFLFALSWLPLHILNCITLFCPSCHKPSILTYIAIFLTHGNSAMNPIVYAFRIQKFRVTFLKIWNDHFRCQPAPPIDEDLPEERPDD
Method: Adenosine A1 Receptor Functional Assay (A1GAL2)
(§1) To initiate the functional assay, cryopreserved CHO—K1 cells overexpressing the human adenosine A1 receptor and containing a cAMP inducible beta-galactosidase reporter gene were thawed, centrifuged, DMSO containing media removed, and then seeded with fresh culture media into clear 384-well tissue culture treated plates (BD #353961) at a concentration of 10K cells/well. Prior to assay, these plates were cultured for two days at 37° C., 5% CO2, 90% Rh. On the day of the functional assay, culture media was removed and replaced with 45 uL assay medium (Hams/F-12 Modified (Mediatech #10-080CV) supplemented w/0.1% BSA). Test compounds were diluted and 11 point curves created at a 1000× concentration in 100% DMSO. Immediately after addition of assay media to the cell plates, 50 nL of the appropriate test compound antagonist or agonist control curves were added to cell plates using a Cartesian Hummingbird. Compound curves were allowed to incubate at room temperature on cell plates for approximately 15 minutes before addition of a 4 nM r-PIA (Sigma P4532)/1 uM Forskolin (Sigma F3917) agonist challenge (5 uL volume). A control curve of r-PIA in 1 uM Forskolin, a DMSO/Media control, and a single dose of Forskolin were also included on each plate. After additions, cell plates were allowed to incubate at 37° C., 5% CO2, 90% Rh for 5.5-6 hours. After incubation, media was removed, and cell plates were washed 1× 50 uL with DPBS w/o Ca & Mg (Mediatech 21-031-CV). Into dry wells, 20 uL of 1× Reporter Lysis Buffer (Promega E3971 (diluted in dH2O from 5× stock)) was added to each well and plates frozen at −20° C. overnight. For β-galactosidase enzyme calorimetric assay, plates were thawed out at room temperature and 20 μL 2× assay buffer (Promega) was added to each well. Color was allowed to develop at 37° C., 5% CO2, 90% Rh for 1-1.5 h or until reasonable signal appeared. The calorimetric reaction was stopped with the addition of 60 μL/well 1M sodium carbonate. Plates were counted at 405 nm on a SpectraMax Microplate Reader (Molecular Devices). Data was analyzed in Microsoft Excel and IC/EC50 curves were fit using a standardized macro.

[2] = target: T2, human adenosine A2a receptor (Homo sapiens, UniProt P29274); experiment: Adenosine A2a Receptor Functional Assay (A2AGAL2); format: cell-based; settings: CHO-K1 cells overexpressing human A2a receptor, cAMP inducible beta-galactosidase reporter, 15 nM NECA agonist challenge
T2 construct: expressed in transfected cells; host or cells: CHO-K1 cells with a cAMP inducible beta-galactosidase reporter gene
Method: Adenosine A2a Receptor Functional Assay (A2AGAL2)
as §1, with “adenosine A2a” for “adenosine A1”, “a 15” for “a 4”, “nM NECA” for “nM r-PIA”, “(Sigma E2387)” for “(Sigma P4532)/1 uM Forskolin (Sigma F3917)”, “of NECA,” for “of r-PIA in 1 uM Forskolin,”, “Forskolin (Sigma F3917)” for “Forskolin”

T2 sequence (P29274 whole entry): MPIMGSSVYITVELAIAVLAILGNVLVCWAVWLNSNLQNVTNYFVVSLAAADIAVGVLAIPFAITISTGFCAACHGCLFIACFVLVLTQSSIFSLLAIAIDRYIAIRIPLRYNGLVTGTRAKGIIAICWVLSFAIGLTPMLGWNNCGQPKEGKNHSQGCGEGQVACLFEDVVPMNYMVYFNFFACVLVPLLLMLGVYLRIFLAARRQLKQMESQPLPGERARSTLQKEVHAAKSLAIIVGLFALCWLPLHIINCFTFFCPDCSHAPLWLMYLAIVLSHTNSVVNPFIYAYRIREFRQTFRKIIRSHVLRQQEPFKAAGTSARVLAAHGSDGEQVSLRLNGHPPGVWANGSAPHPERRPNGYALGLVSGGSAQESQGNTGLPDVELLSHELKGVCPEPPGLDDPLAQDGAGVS

| Ki [1] [nM] | Ki [2] [nM] | Compound |
| --- | --- | --- |
| 1150 | 89.4 | N#Cc1cccc(-c2nc(N)c3cc(Nc4ccccc4)sc3n2)c1 [Example 1, (4-Amino-6-phenylamino-thieno[2,3-d]pyrimidin-2-yl)-benzonitrile] |
| 269 | 11.4 | COc1ccccc1Nc1cc2c(N)nc(-c3cccc(C#N)c3)nc2s1 [Example 2, 3-[4-Amino-6-(2-methoxy-phenylamino)-thieno[2,3-d]pyrimidin-2-yl]-benzonitrile] |
| 569 | 103 | COc1ccccc1N(C)c1cc2c(N)nc(-c3cccc(C#N)c3)nc2s1 [Example 3, 3-{4-Amino-6-[(2-methoxy-phenyl)-methyl-amino]-thieno[2,3-d]pyrimidin-2-yl}-benzonitrile] |
| 765 | 84.4 | N#Cc1cccc(-c2nc(N)c3cc(Nc4ccccn4)sc3n2)c1 [Example 4, 3-[4-Amino-6-(pyridin-2-ylamino)-thieno[2,3-d]pyrimidin-2-yl]-benzonitrile] |
| 2330 | 127 | CN(c1ccccc1)c1cc2c(N)nc(-c3cccc(C#N)c3)nc2s1 [Example 5, 3-[4-Amino-6-(methyl-phenyl-amino)-thieno[2,3-d]pyrimidin-2-yl]-benzonitrile] |
| 2370 | 261 | COc1cccc(Nc2cc3c(N)nc(-c4cccc(C#N)c4)nc3s2)c1 [Example 6, 3-[4-Amino-6-(3-methoxy-phenylamino)-thieno[2,3-d]pyrimidin-2-yl]-benzonitrile-hydrochloride] |
| 2270 | 230 | N#Cc1cccc(-c2nc(N)c3cc(Nc4ccccc4Cl)sc3n2)c1 [Example 7, 3-[4-Amino-6-(2-chloro-phenylamino)-thieno[2,3-d]pyrimidin-2-yl]-benzonitrile-hydrochloride] |
| 2770 | 316 | CN(c1cc2c(N)nc(-c3cccc(C#N)c3)nc2s1)c1ccccc1Cl [Example 8, 3-{4-Amino-6-[(2-chloro-phenyl)-methyl-amino]-thieno[2,3-d]pyrimidin-2-yl}-benzonitrile] |
| 2540 | 273 | COc1cccc(N(C)c2cc3c(N)nc(-c4cccc(C#N)c4)nc3s2)c1 [Example 9, 3-{4-Amino-6-[(3-methoxy-phenyl)-methyl-amino]-thieno[2,3-d]pyrimidin-2-yl}-benzonitrile-hydrochloride] |
| 2600 | 131 | N#Cc1cccc(-c2nc(N)c3cc(Nc4ccccc4F)sc3n2)c1 [Example 10, 3-[4-Amino-6-(2-fluoro-phenylamino)-thieno[2,3-d]pyrimidin-2-yl]-benzonitrile] |
| 5230 | 398 | CN(c1cccc(F)c1)c1cc2c(N)nc(-c3cccc(C#N)c3)nc2s1 [Example 11, 3-{4-Amino-6-[(3-fluoro-phenyl)-methyl-amino]-thieno[2,3-d]pyrimidin-2-yl}-benzonitrile] |
| 358 | 15.7 | N#Cc1cccc(-c2nc(N)c3cc(S(=O)(=O)c4ccccc4)sc3n2)c1 [Example 12, 3-(4-Amino-6-benzenesulfonyl-thieno[2,3-d]pyrimidin-2-yl)-benzonitrile] |
